Results as given in the NIST ThermoML archive (doi:10.1007/s10765-016-2064-y).
± gives the expanded uncertainty stated by the source.

Key:
[1] = molar heat capacity at constant pressure; details: 101.33 kPa, Liquid, Large sample (1 g) DSC
[2] = 101.33 kPa, Liquid; for speed of sound: Pulse-echo method; for mass density: Pycnometric method

CCCCCCCCCCBr [1-bromodecane]
[1]
Details	molar heat capacity at constant pressure [J/K/mol]
298.15 K	334.38 ± 14
303.15 K	336.85 ± 14
308.15 K	339.35 ± 14
313.15 K	341.85 ± 15
318.15 K	344.35 ± 15
323.15 K	346.85 ± 15
328.15 K	349.35 ± 15
333.15 K	351.85 ± 15
338.15 K	354.33 ± 15
343.15 K	356.83 ± 15
348.15 K	359.33 ± 15
353.15 K	361.82 ± 15
358.15 K	364.32 ± 15
363.15 K	366.82 ± 16
368.15 K	369.32 ± 16
373.15 K	371.8 ± 16
378.15 K	374.3 ± 16
383.15 K	376.8 ± 16
388.15 K	379.3 ± 16
393.15 K	381.8 ± 16
398.15 K	384.3 ± 16
403.15 K	386.8 ± 16
408.15 K	389.27 ± 17
413.15 K	391.77 ± 17
418.15 K	394.27 ± 17
423.15 K	396.77 ± 17

CCCCCCCCCBr [1-bromononane]
[1]
Details	molar heat capacity at constant pressure [J/K/mol]
298.15 K	308.3 ± 13
303.15 K	310.56 ± 13
308.15 K	312.82 ± 13
313.15 K	315.1 ± 13
318.15 K	317.36 ± 13
323.15 K	319.61 ± 14
328.15 K	321.87 ± 14
333.15 K	324.15 ± 14
338.15 K	326.41 ± 14
343.15 K	328.67 ± 14
348.15 K	330.92 ± 14
353.15 K	333.2 ± 14
358.15 K	335.46 ± 14
363.15 K	337.72 ± 14
368.15 K	339.98 ± 14
373.15 K	342.26 ± 15
378.15 K	344.51 ± 15
383.15 K	346.77 ± 15
388.15 K	349.03 ± 15
393.15 K	351.31 ± 15
398.15 K	353.57 ± 15
403.15 K	355.82 ± 15
408.15 K	358.08 ± 15
413.15 K	360.36 ± 15
418.15 K	362.62 ± 15
423.15 K	364.88 ± 15

CCCCCCCCCCCBr [1-bromoundecane]
[1]
Details	molar heat capacity at constant pressure [J/K/mol]
298.15 K	373.22 ± 16
303.15 K	375.72 ± 16
308.15 K	378.21 ± 16
313.15 K	380.7 ± 16
318.15 K	383.19 ± 16
323.15 K	385.69 ± 16
328.15 K	388.18 ± 16
333.15 K	390.67 ± 17
338.15 K	393.17 ± 17
343.15 K	395.66 ± 17
348.15 K	398.15 ± 17
353.15 K	400.62 ± 17
358.15 K	403.12 ± 17
363.15 K	405.61 ± 17
368.15 K	408.1 ± 17
373.15 K	410.6 ± 17
378.15 K	413.09 ± 18
383.15 K	415.58 ± 18
388.15 K	418.08 ± 18
393.15 K	420.57 ± 18
398.15 K	423.06 ± 18
403.15 K	425.56 ± 18
408.15 K	428.02 ± 18
413.15 K	430.52 ± 18
418.15 K	433.01 ± 18
423.15 K	435.5 ± 18

CCCCCCBr [1-bromohexane]
[1]
Details	molar heat capacity at constant pressure [J/K/mol]
298.15 K	219.66 ± 9.3
303.15 K	221.28 ± 9.4
308.15 K	222.9 ± 9.5
313.15 K	224.51 ± 9.5
318.15 K	226.13 ± 9.6
323.15 K	227.77 ± 9.7
328.15 K	229.38 ± 9.7
333.15 K	231 ± 9.8
338.15 K	232.62 ± 9.9
343.15 K	234.24 ± 9.9
348.15 K	235.87 ± 10
353.15 K	237.49 ± 10
358.15 K	239.11 ± 10
363.15 K	240.72 ± 10
368.15 K	242.34 ± 10
373.15 K	243.96 ± 10
378.15 K	245.59 ± 10
383.15 K	247.21 ± 10
388.15 K	248.83 ± 11
393.15 K	250.45 ± 11
398.15 K	252.06 ± 11
403.15 K	253.68 ± 11
408.15 K	255.32 ± 11
413.15 K	256.93 ± 11
418.15 K	258.55 ± 11
423.15 K	260.17 ± 11

CCCCCCCCCCCCBr [1-bromododecane]
[1]
Details	molar heat capacity at constant pressure [J/K/mol]
298.15 K	399.29 ± 17
303.15 K	402.38 ± 17
308.15 K	405.47 ± 17
313.15 K	408.56 ± 17
318.15 K	411.65 ± 17
323.15 K	414.75 ± 18
328.15 K	417.84 ± 18
333.15 K	420.93 ± 18
338.15 K	424.02 ± 18
343.15 K	427.11 ± 18
348.15 K	430.2 ± 18
353.15 K	433.26 ± 18
358.15 K	436.35 ± 19
363.15 K	439.44 ± 19
368.15 K	442.53 ± 19
373.15 K	445.62 ± 19
378.15 K	448.72 ± 19
383.15 K	451.81 ± 19
388.15 K	454.9 ± 19
393.15 K	457.99 ± 19
398.15 K	461.08 ± 20
403.15 K	464.14 ± 20
408.15 K	467.23 ± 20
413.15 K	470.32 ± 20
418.15 K	473.41 ± 20
423.15 K	476.5 ± 20

CCCCCCCBr [1-bromoheptane]
[1]
Details	molar heat capacity at constant pressure [J/K/mol]
298.15 K	249.39 ± 11
303.15 K	251.24 ± 11
308.15 K	253.07 ± 11
313.15 K	254.91 ± 11
318.15 K	256.75 ± 11
323.15 K	258.58 ± 11
328.15 K	260.43 ± 11
333.15 K	262.27 ± 11
338.15 K	264.1 ± 11
343.15 K	265.94 ± 11
348.15 K	267.77 ± 11
353.15 K	269.61 ± 11
358.15 K	271.46 ± 12
363.15 K	273.29 ± 12
368.15 K	275.13 ± 12
373.15 K	276.98 ± 12
378.15 K	278.8 ± 12
383.15 K	280.65 ± 12
388.15 K	282.47 ± 12
393.15 K	284.32 ± 12
398.15 K	286.16 ± 12
403.15 K	287.99 ± 12
408.15 K	289.83 ± 12
413.15 K	291.68 ± 12
418.15 K	293.51 ± 12
423.15 K	295.35 ± 13

CCCCCCCCBr [1-bromooctane]
[1]
Details	molar heat capacity at constant pressure [J/K/mol]
298.15 K	272.15 ± 12
303.15 K	274.7 ± 12
308.15 K	277.25 ± 12
313.15 K	279.8 ± 12
318.15 K	282.35 ± 12
323.15 K	284.92 ± 12
328.15 K	287.47 ± 12
333.15 K	290.02 ± 12
338.15 K	292.56 ± 12
343.15 K	295.11 ± 13
348.15 K	297.66 ± 13
353.15 K	300.23 ± 13
358.15 K	302.78 ± 13
363.15 K	305.33 ± 13
368.15 K	307.88 ± 13
373.15 K	310.43 ± 13
378.15 K	313 ± 13
383.15 K	315.55 ± 13
388.15 K	318.1 ± 13
393.15 K	320.64 ± 14
398.15 K	323.19 ± 14
403.15 K	325.76 ± 14
408.15 K	328.31 ± 14
413.15 K	330.86 ± 14
418.15 K	333.41 ± 14
423.15 K	335.96 ± 14

CCCCCCCCCCCCCCBr [1-tetradecyl bromide]
Details	mass density, [2] [kg/m3]	molar heat capacity at constant pressure, [1] [J/K/mol]	speed of sound, [2] [m/s]
298.15 K	1012.2 ± 1.2	450.84 ± 19	1277.2 ± 3.3
303.15 K	1008.1 ± 1.2	454.08 ± 19	1260.6 ± 3.3
308.15 K	1003.9 ± 1.2	457.3 ± 19	1244.1 ± 3.3
313.15 K	999.8 ± 1.2	460.54 ± 20	1227.9 ± 3.2
318.15 K	995.7 ± 1.2	463.79 ± 20	1211.9 ± 3.2
323.15 K	991.6 ± 1.2	467.03 ± 20	1196 ± 3.2
328.15 K	987.4 ± 1.2	470.27 ± 20	1180.4 ± 3.2
333.15 K	983.3 ± 1.2	473.52 ± 20	1164.9 ± 3.1
338.15 K	979.1 ± 1.3	476.73 ± 20	1149.6 ± 3.1
343.15 K	974.9 ± 1.3	479.98 ± 20	1134.5 ± 3.1
348.15 K	970.8 ± 1.3	483.22 ± 20	1119.5 ± 3.1
353.15 K	966.6 ± 1.3	486.47 ± 21	1104.6 ± 3
358.15 K	962.4 ± 1.3	489.71 ± 21	1089.9 ± 3
363.15 K	958.2 ± 1.3	492.93 ± 21	1075.3 ± 3
368.15 K	954 ± 1.3	496.17 ± 21	1060.9 ± 3
373.15 K	949.8 ± 1.3	499.42 ± 21	1046.5 ± 3
378.15 K	945.6 ± 1.3	502.66 ± 21	1032.3 ± 2.9
383.15 K	941.3 ± 1.3	505.9 ± 21	1018.2 ± 2.9
388.15 K	937.1 ± 1.3	509.15 ± 22	1004.2 ± 2.9
393.15 K	932.9 ± 1.3	512.37 ± 22	990.2 ± 2.9
398.15 K	928.6 ± 1.3	515.61 ± 22	976.4 ± 2.9
403.15 K	924.4 ± 1.3	518.85 ± 22	962.6 ± 2.8
408.15 K	920.1 ± 1.3	522.1 ± 22	948.9 ± 2.8
413.15 K	915.9 ± 1.3	525.34 ± 22	935.3 ± 2.8
418.15 K	911.6 ± 1.3	528.56 ± 22	921.7 ± 2.8
423.15 K	907.4 ± 1.3	531.8 ± 23	908.1 ± 2.8
